Experiments:
[1] = system: mouse Lewis lung adenocarcinoma; parameters: method as in PMID 34370156; conditions: cited from earlier work
cells = conditions: cited from earlier work; for CC50: read-out: CC50 values (toxicity to cells)
[2] = MTT cytotoxicity test, HEK293A; type: cell-based; conditions: human, HEK293A cells (embryonic kidney, nontumor), read-out: semitoxic concentration (CC50), HEK293A
Source text: (§1) Compounds 6 and 8 with a bromophenol residue in the enamine fragment have a weak or moderate effect on cell survival (Table 1 and Supplementary Figure S1).
(§2) Cytotoxicity of the compounds against human tumor cell lines: HeLa (cervical cancer), HCT-116 (colorectal cancer), A-549 (lung cancer), MCF-7 (breast cancer), T98G (glioblastoma), HepG2 (hepatocarcinoma), and nontumor cell lines: MRC-5 (lung fibroblasts) and HEK293A (human embryonic kidney) was examined using the MTT test. HCT-116 and MRC-5 cell lines were provided by the Cell Culture Bank of the State Research Center for Virology and Biotechnology Vector, Novosibirsk, Russia. A-549, MCF-7, and T98G cell lines were obtained from the Russian Cell Culture Collection (RCCC) Institute of Cytology RAS (St. Petersburg, Russia). HEK293A cells were purchased (ThermoFisher Scientific, Waltham, MA, USA).
(§3) The cell culture medium DMEM medium (Invitrogen, Carlsbad, CA, USA) contained 10% fetal bovine serum (FBS) (Invitrogen), penicillin (100 units/mL), and streptomycin (100 µg/mL). Cells were seeded into 96-well plates at 5000 cells per well and grown at 37 °C and 5% CO2 in a humid atmosphere. At 30–50% confluence, the tested compounds were added to the medium to a final DMSO content of 1%. Control wells contained 1% DMSO. To determine the cytotoxicity of Tdp1 inhibitors, the cells were treated with compounds with concentrations ranging from 1 to 100 µM for 72 h at 37 °C for 72 h. All measurements were repeated a minimum of twice.

[3] = MTT cytotoxicity test, A-549; type: cell-based; conditions: human, A-549 cells (lung cancer), read-out: semitoxic concentration (CC50), A-549
Source text: as §1, §2, §3

Tdp1 = target: T1, Tdp1 (Homo sapiens, UniProt Q9NUW8); experiment: Tdp1 inhibition, fluorescent oligonucleotide biosensor; type: biochemical; conditions: purified Tdp1 1.5 nM, 50 nM biosensor; read-out: Concentration of half-maximal inhibition of Tdp1 (IC50)
T1 construct: Purified Tdp1 (1.5 nM) triggered the reaction
Source text: The inhibitory properties of the compound on the purified Tdp1 was studied using a technique developed previously by our team. A 16-mer single-stranded oligonucleotide carrying a fluorophore at the 5′-end and a quencher at the 3′-end was used as a biosensor. When within the Förster radius, the quencher suppressed the fluorescence of the fluorophore. The quencher was removed by Tdp1, resulting in fluorescence emission. Usnic acid derivatives with a bromophenol residue in the enamine fragment (compounds 6 and 8) inhibit the enzyme with half-maximal inhibition concentrations (IC50) an order of magnitude worse than derivatives with a di-tert-butyl fragment (compounds 5 and 7).
An oligonucleotide 5′-[FAM] AAC GTC AGGGTC TTC C [BHQ1]-3′ synthesized in the laboratory Laboratory of Nucleic Acids Chemistry at the Institute of Chemical Biology and Fundamental Medicine (Novosibirsk, Russia) was used as a biosensor. Removal of the quencher (BHQ1) due to enzyme activity leads to increased fluorescence of FAM. The reaction was carried out at different concentrations of inhibitors (1.5% of DMSO, Sigma, St. Louis, MO, USA, in the control samples). The reaction mixtures contained Tdp1 buffer (50 mM Tris-HCl pH 8.0, 50 mM NaCl, and 7 mM β-mercaptoethanol), 50 nM biosensor, and an inhibitor being tested. Purified Tdp1 (1.5 nM) triggered the reaction.
The fluorescence was measured using POLARstar OPTIMA fluorimeter (BMG LABTECH, GmbH, Ortenberg, Germany). The values of IC50 were determined in minimum three independent experiments and were calculated using embedded software MARS Data Analysis 2.0 (BMG LABTECH, GmbH, Ortenberg, Germany).

[4] = MTT cytotoxicity test, T98G; type: cell-based; conditions: human, T98G cells (glioblastoma), read-out: semitoxic concentration (CC50), T98G
Source text: as §1, §2, §3

[5] = MTT cytotoxicity test, MCF-7; type: cell-based; conditions: human, MCF-7 cells (breast cancer), read-out: semitoxic concentration (CC50), MCF-7
Source text: as §1, §2, §3

[6] = MTT cytotoxicity test, HeLa; type: cell-based; conditions: human, HeLa cells (cervical cancer), read-out: semitoxic concentration (CC50), HeLa
Source text: as §1, §2, §3

[7] = system: various types of cultured cells; experiment: MTT test, panel of cultured cell lines; type: cell-based; conditions: at concentrations up to 100 μM; wide panel of tumor and non-cancerous cell lines
Source text: as §1, §2
as §3, with “To determine the cytotoxicity of Tdp1 inhibitors, the cells were treated with compounds with concentrations ranging from 1 to 100 µM for 72 h at 37 °C for 72 h. All measurements were repeated a minimum of twice.” left out

[8] = MTT cytotoxicity test, MRC-5; type: cell-based; conditions: human, MRC-5 cells (lung fibroblasts, nontumor), read-out: semitoxic concentration (CC50), MRC-5
Source text: as §1, §2, §3

[9] = MTT cytotoxicity test, HCT-116; type: cell-based; conditions: human, HCT-116 cells (colorectal cancer), read-out: semitoxic concentration (CC50), HCT-116
Source text: as §1, §2, §3

T1 sequence (Q9NUW8 whole entry): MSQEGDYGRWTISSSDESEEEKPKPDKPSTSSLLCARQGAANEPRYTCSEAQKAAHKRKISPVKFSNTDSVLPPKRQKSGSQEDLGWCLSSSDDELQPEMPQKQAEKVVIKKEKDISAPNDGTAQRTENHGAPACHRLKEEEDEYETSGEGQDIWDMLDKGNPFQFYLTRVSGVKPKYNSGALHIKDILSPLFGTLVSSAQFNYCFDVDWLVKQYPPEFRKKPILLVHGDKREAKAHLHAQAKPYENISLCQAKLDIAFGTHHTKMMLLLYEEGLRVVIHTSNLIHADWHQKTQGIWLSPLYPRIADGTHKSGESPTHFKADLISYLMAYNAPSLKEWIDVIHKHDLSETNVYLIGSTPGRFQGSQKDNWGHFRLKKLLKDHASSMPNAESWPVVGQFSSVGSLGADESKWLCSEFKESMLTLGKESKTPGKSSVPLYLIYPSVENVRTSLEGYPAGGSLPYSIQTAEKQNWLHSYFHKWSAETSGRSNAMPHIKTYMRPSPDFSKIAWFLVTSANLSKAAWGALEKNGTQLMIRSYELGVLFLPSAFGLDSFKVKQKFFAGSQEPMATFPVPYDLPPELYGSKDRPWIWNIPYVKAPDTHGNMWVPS

SMILES	enhancement of the antitumor effect of topotecan [1]	toxicity to the different cell types (in words) (cells)	CC50 at 72 h [2] [µM]	CC50 at 72 h [3] [µM]	IC50 (Tdp1) [µM]	CC50 at 72 h [4] [µM]	CC50 at 72 h [5] [µM]	CC50 at 72 h [6] [µM]	CC50 (cells) [µM]	living cells (metabolic activity, MTT) [7]	CC50 at 72 h [8] [µM]	CC50 at 72 h [9] [µM]
CC(=O)c1c(O)c(C)c(O)c2c1OC1=CC(=O)/C(=C(\C)NCCCc3cc(C(C)(C)C)c(O)c(C(C)(C)C)c3)C(=O)[C@@]12C [Compound 1]	enhanced at least twofold	nontoxic										
CC(=O)c1c(O)c(C)c(O)c2c1OC1=CC(=O)/C(=C(\C)Nc3ccc(Br)cc3)C(=O)[C@@]12C [Compound 2]		nontoxic										
C/C(Nc1ccc(Br)cc1)=C1\C(=O)C=C2Oc3c(-c4csc(N/N=C/c5ccc(Br)cc5)n4)c(O)c(C)c(O)c3[C@@]2(C)C1=O [Compound 8, (4E)-4-{1-[(4-bromophenyl)amino]ethilidene}-10-{2-[(E)-2-[(4-bromophenyl)methylidene]hydrazin-1-yl]-1,3-thiazol-4-yl}-11,13-dihydroxy-2,12-dimethyl-8-oxatricyclo [7.4.0.02,7]trideca-1(13),6,9,11-tetraen-3,5-dione]			88 ± 26	30 ± 10	5 ± 1	44 ± 13	30 ± 20	> 100				
CC(=O)C1=C(O)C=C2Oc3c(-c4csc(N/N=C/c5ccc(Br)s5)n4)c(O)c(C)c(O)c3[C@@]2(C)C1=O [Compound 3]									9 to 16			
C/C(NCCCc1cc(C(C)(C)C)c(O)c(C(C)(C)C)c1)=C1\C(=O)C=C2Oc3c(-c4csc(N/N=C/c5ccc(Br)s5)n4)c(O)c(C)c(O)c3[C@@]2(C)C1=O [Compound 5, (4E)-10-{2-[(E)-2-[(5-bromothiophenyl)methylidene]hydrazin-1-yl]-1,3-thiazole-4-yl}-4-(1-{[3-(3,5-di-tret-butyl-4-hydroxyhenyl)propyl]amino}ethylidene)-11,13-dihydroxy-2,12-dimethyl-8-oxatricyclo [7.4.0.02,7]trideca-1(13),6,9,11-tetraen-3,5-dione]			> 100	> 100	0.14 ± 0.02	> 100	> 100	> 100		more than 50%	> 100	> 100
CC(=O)C1=C(O)C=C2Oc3c(-c4csc(N/N=C/c5ccc(Br)cc5)n4)c(O)c(C)c(O)c3[C@@]2(C)C1=O [Compound 4, reference compound]			12 ± 5	3.9 ± 0.2	0.03 ± 0.01	4 ± 1	9.3 ± 2.2		1.5		7 ± 0.7	7 ± 0.6
